Where “and” joins values, the source holds several entries; their conditions need not be identical. Identical values can stand only once. Inconclusive results and toxic doses are left out. Peptide text beside a SMILES is read from it. * marks the point of attachment. Cbz = O=C(OCc1ccccc1)*; Boc = CC(C)(C)OC(=O)*; OtBu = CC(C)(C)O*
System: P388 leukemia ip, CD2F1 mice, survival T/C
Assay: NCI In Vivo Anticancer Drug Screen. Data for tumor model P388 Leukemia (intraperitoneal) in CD2F1 (CDF1) mice
Conditions: endpoint: median survival time, higher = longer survival
In short: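 Mice carrying the transplanted tumor received test compound or vehicle. Survival was recorded in each group, and the value is the treated-group measurement divided by that of the vehicle-treated control group.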

[1] = dose: 100.0 mg/kg/injection, schedule: Q04DX002 (ip), vehicle: saline with Tween-80
[2] = dose: 200.0 mg/kg/injection, schedule: Q04DX002 (ip), vehicle: saline with Tween-80
[3] = dose: 200.0 mg/kg/injection, schedule: Q01DX009 (ip), vehicle: saline with Tween-80
[4] = dose: 25.0 mg/kg/injection, schedule: Q01DX005 (ip), vehicle: saline
[5] = dose: 50.0 mg/kg/injection, schedule: Q01DX005 (ip), vehicle: saline
[6] = dose: 50.0 mg/kg/injection, schedule: Q01DX009 (ip), vehicle: saline
[7] = dose: 100.0 mg/kg/injection, schedule: Q01DX009 (ip), vehicle: saline
[8] = dose: 200.0 mg/kg/injection, schedule: Q01DX009 (ip), vehicle: saline
[9] = dose: 25.0 mg/kg/injection, schedule: Q01DX005 (ip), vehicle: Klucel (hydroxypropylcellulose) (HPC)
[10] = dose: 50.0 mg/kg/injection, schedule: Q01DX005 (ip), vehicle: Klucel (hydroxypropylcellulose) (HPC)
[11] = dose: 60.0 mg/kg/injection, schedule: Q01DX005 (ip), vehicle: Klucel (hydroxypropylcellulose) (HPC)
[12] = dose: 120.0 mg/kg/injection, schedule: Q01DX005 (ip), vehicle: Klucel (hydroxypropylcellulose) (HPC)
[13] = dose: 100.0 mg/kg/injection, schedule: Q01DX009 (ip), vehicle: saline with Tween-80
[14] = dose: 100.0 mg/kg/injection, schedule: Q01DX005 (ip), vehicle: saline
[15] = dose: 200.0 mg/kg/injection, schedule: Q01DX005 (ip), vehicle: saline
[16] = dose: 100.0 mg/kg/injection, schedule: Q01DX005 (ip), vehicle: Klucel (hydroxypropylcellulose) (HPC)
[17] = dose: 200.0 mg/kg/injection, schedule: Q01DX005 (ip), vehicle: Klucel (hydroxypropylcellulose) (HPC)
[18] = dose: 50.0 mg/kg/injection, schedule: Q01DX009 (ip), vehicle: saline with Tween-80

CC(=O)Nc1cc2nc3ccc(C)cc3oc-2c(C)c1=O
T/C (dose: 0.78 mg/kg/injection, schedule: Q01DX009 (ip), vehicle: other): 113 % of control | T/C (dose: 1.56 mg/kg/injection, schedule: Q01DX009 (ip), vehicle: other): 98 % of control | T/C (dose: 3.13 mg/kg/injection, schedule: Q01DX009 (ip), vehicle: other): 98 % of control | T/C (dose: 6.25 mg/kg/injection, schedule: Q01DX009 (ip), vehicle: other): 103 % of control

O=c1ncccn1[C@@H]1O[C@H](CO)[C@H](O)C1O (some centres undefined)
T/C (dose: 6.25 mg/kg/injection, schedule: Q01DX009 (ip), vehicle: water): 103 % of control | T/C (dose: 12.5 mg/kg/injection, schedule: Q01DX009 (ip), vehicle: water): 104 % of control | T/C (dose: 25.0 mg/kg/injection, schedule: Q01DX009 (ip), vehicle: water): 101 % of control | T/C (dose: 50.0 mg/kg/injection, schedule: Q01DX009 (ip), vehicle: water): 102 % of control | T/C (dose: 100.0 mg/kg/injection, schedule: Q01DX009 (ip), vehicle: water): 108 % of control | T/C (dose: 400.0 mg/kg/injection, schedule: Q01DX009 (ip), vehicle: saline): 152 % of control

CCCCCC(C1SC(=S)NC1=O)C1SC(=S)NC1=O (centres undefined)
T/C (dose: 50.0 mg/kg/injection, schedule: Q01DX005 (ip), vehicle: saline with Tween-80): 90 % of control | T/C (dose: 100.0 mg/kg/injection, schedule: Q01DX005 (ip), vehicle: saline with Tween-80): 106 % of control

COc1ccc2c(c1OC)-c1ccccc1C(=O)OC2
T/C [1]: 109 % of control | T/C [2]: 100 % of control | T/C (dose: 400.0 mg/kg/injection, schedule: Q04DX002 (ip), vehicle: saline with Tween-80): 91 % of control

O=C(Nc1cccc2c(OC(=O)C(Cl)Cl)c(N=Nc3ccc(S(=O)(=O)Nc4nccs4)cc3)cc(N=Nc3ccc(S(=O)(=O)Nc4nccs4)cc3)c12)C(Cl)Cl (tested in a mixture with another compound)
T/C (dose: 3.12 mg/kg/injection, schedule: Q01DX009 (ip), vehicle: saline with Tween-80): 107 % of control | T/C (dose: 6.25 mg/kg/injection, schedule: Q01DX009 (ip), vehicle: saline with Tween-80): 104 % of control | T/C (dose: 12.5 mg/kg/injection, schedule: Q01DX009 (ip), vehicle: saline with Tween-80): 105 % of control and 110 % of control | T/C (dose: 25.0 mg/kg/injection, schedule: Q01DX009 (ip), vehicle: saline with Tween-80): 105 % of control [middle of 5 runs] | T/C [3]: 108 % of control [middle of 8 runs]

CC1CCC(C(C)C)C(OC(=O)c2ccc[n+](C)c2)C1 (centres undefined)
T/C (dose: 12.5 mg/kg/injection, schedule: Q01DX005 (ip), vehicle: saline): 105 % of control | T/C [4]: 116 % of control | T/C [5]: 100 % of control and 105 % of control

COc1ccc(C(=S=O)N(C)c2ccccc2)cc1
T/C [6]: 100 % of control | T/C [7]: 100 % of control | T/C [8]: 90 % of control

Oc1ccc2[nH]c3cc4ccncc4cc3c2c1
T/C (dose: 25.0 mg/kg/injection, schedule: Q04DX002 (ip), vehicle: saline with Tween-80): 106 % of control | T/C (dose: 50.0 mg/kg/injection, schedule: Q04DX002 (ip), vehicle: saline with Tween-80): 97 % of control | T/C [1]: 122 % of control | T/C [2]: 115 % of control

CC(C)N(C(=S)Sc1c2ccccc2c(Br)c2ccccc12)C(C)C
T/C (dose: 12.5 mg/kg/injection, schedule: Q01DX005 (ip), vehicle: Klucel (hydroxypropylcellulose) (HPC)): 108 % of control | T/C [9]: 102 % of control | T/C [10]: 99 % of control and 89 % of control

O=C1CC2CCC1(CS(=O)(=O)OCCCCOS(=O)(=O)CC13CCC(CC1=O)C3)C2
T/C (dose: 60.0 mg/kg/injection, schedule: Q01DX005 (ip), vehicle: saline with Tween-80): 103 % of control | T/C (dose: 120.0 mg/kg/injection, schedule: Q01DX005 (ip), vehicle: saline with Tween-80): 103 % of control | T/C (dose: 240.0 mg/kg/injection, schedule: Q01DX005 (ip), vehicle: saline with Tween-80): 93 % of control

COc1ccc(NC2=NCCS2)cc1
T/C (dose: 50.0 mg/kg/injection, schedule: Q04DX003 (ip), vehicle: saline with Tween-80): 100 % of control | T/C (dose: 100.0 mg/kg/injection, schedule: Q04DX003 (ip), vehicle: saline with Tween-80): 100 % of control | T/C (dose: 200.0 mg/kg/injection, schedule: Q04DX003 (ip), vehicle: saline with Tween-80): 100 % of control

CCc1nc2c(Br)c3oc(CC)nc3c(Br)c2o1
T/C [11]: 103 % of control | T/C [12]: 100 % of control | T/C (dose: 240.0 mg/kg/injection, schedule: Q01DX005 (ip), vehicle: Klucel (hydroxypropylcellulose) (HPC)): 90 % of control

CSc1nc2n(Cc3cn(C)c(=O)n(C)c3=O)cc(C)cc-2c(=O)n1
T/C (dose: 100.0 mg/kg/injection, schedule: Q01DX001 (ip), vehicle: saline with Tween-80): 96 % of control | T/C (dose: 200.0 mg/kg/injection, schedule: Q01DX001 (ip), vehicle: saline with Tween-80): 94 % of control | T/C (dose: 400.0 mg/kg/injection, schedule: Q01DX001 (ip), vehicle: saline with Tween-80): 94 % of control

CCOC(=O)c1cc(CC)sc1N
T/C [13]: 90 % of control | T/C [3]: 90 % of control

Cc1c(O)c(=O)ccn1C1OC(CO)C(O)C1O (centres undefined)
T/C [4]: 99 % of control | T/C [5]: 104 % of control | T/C [14]: 99 % of control | T/C [15]: 104 % of control | T/C (dose: 400.0 mg/kg/injection, schedule: Q01DX005 (ip), vehicle: saline): 105 % of control

Cc1c2c(c(C)c3ccccc13)C(O)C(O)c1ccccc1-2 (centres undefined)
T/C (dose: 100.0 mg/kg/injection, schedule: Q01DX001 (ip), vehicle: Klucel (hydroxypropylcellulose) (HPC)): 91 % of control | T/C (dose: 200.0 mg/kg/injection, schedule: Q01DX001 (ip), vehicle: Klucel (hydroxypropylcellulose) (HPC)): 91 % of control | T/C (dose: 400.0 mg/kg/injection, schedule: Q01DX001 (ip), vehicle: Klucel (hydroxypropylcellulose) (HPC)): 99 % of control

CCOC(=O)NC(=N/C(=C/c1cccc(C)n1)c1ccccc1)c1ccccc1
T/C [11]: 93 % of control | T/C [12]: 91 % of control

Nc1cc2c3ccccc3ccc2c2ccccc12
T/C [9]: 104 % of control | T/C [10]: 107 % of control | T/C [16]: 109 % of control | T/C [17]: 105 % of control

CC1(C)C(N)C(C)(C)C1N (centres undefined)
T/C [6]: 94 % of control | T/C [7]: 97 % of control | T/C [8]: 86 % of control

COc1ccc2cc3c(nc2c1N)C(=O)C(N1CC1)=C(N1CC1)C3=O
T/C [9]: 98 % of control | T/C [10]: 99 % of control | T/C [16]: 100 % of control | T/C [17]: 100 % of control

O/N=C/c1c(-c2ccccc2)nc2n1CCS2
T/C (dose: 100.0 mg/kg/injection, schedule: Q04DX002 (ip), vehicle: Klucel (hydroxypropylcellulose) (HPC)): 101 % of control | T/C (dose: 200.0 mg/kg/injection, schedule: Q04DX002 (ip), vehicle: Klucel (hydroxypropylcellulose) (HPC)): 99 % of control | T/C (dose: 400.0 mg/kg/injection, schedule: Q04DX002 (ip), vehicle: Klucel (hydroxypropylcellulose) (HPC)): 98 % of control

NNC(=O)NN1C(=O)c2cc(S(=O)(=O)O)cc3c(N)c(S(=O)(=O)O)cc(c23)C1=O
T/C [5]: 98 % of control | T/C [14]: 104 % of control | T/C [15]: 99 % of control

O=C(/C=C/c1ccc(OCc2ccccc2)cc1)c1ccc([N+](=O)[O-])cc1
T/C [18]: 99 % of control | T/C [13]: 104 % of control | T/C [3]: 102 % of control

N#CC(C#N)=CN(CCO)CCO
T/C [5]: 99 % of control | T/C [14]: 99 % of control | T/C [15]: 97 % of control

CSCCC(NC(=O)OC(C)(C)C)C(=O)NC(Cc1ccccc1)C(=O)NCC(=O)OC(C)(C)C (stereo not drawn) (Boc-Met-Phe-Gly-OtBu; configuration not given here)
T/C [10]: 93 % of control | T/C [16]: 97 % of control | T/C [17]: 107 % of control

COC(=O)C(NC(=O)C1CCCN1C(=O)OCc1ccccc1)C(C)C (stereo not drawn) (Cbz-Pro-Val-OMe; configuration not given here)
T/C [18]: 98 % of control | T/C [13]: 104 % of control | T/C [3]: 107 % of control

NC(N)=NS(=O)(=O)c1ccccc1[N+](=O)[O-]
T/C (dose: 7.5 mg/kg/injection, schedule: Q01DX009 (ip), vehicle: saline with Tween-80): 106 % of control | T/C (dose: 15.0 mg/kg/injection, schedule: Q01DX009 (ip), vehicle: saline with Tween-80): 113 % of control | T/C (dose: 30.0 mg/kg/injection, schedule: Q01DX009 (ip), vehicle: saline with Tween-80): 120 % of control
